In ChEMBL document CHEMBL2429808, “Synthesis, characterization, and cytotoxicity of N-2-hydroxyethyl-substituted azastigmastanes” (Med Chem Res, 2013):

Legend:
Type in all cases: functional, cell-based
MCF7 = experiment: Cytotoxicity against human MCF7 cells after 96 hrs by MTT assay; settings: for IC50: MCF7, 96 h
HepG2 = experiment: Cytotoxicity against human HepG2 cells after 96 hrs by MTT assay; settings: for IC50: HepG2, 96 h
HCT-116 = experiment: Cytotoxicity against human HCT116 cells after 96 hrs by MTT assay; settings: for IC50: HCT-116, 96 h

`CC[C@H](CC[C@@H](C)[C@H]1CC[C@H]2[C@@H]3CC(=O)[C@H]4C[C@@H](Cl)CC[C@]4(C)[C@H]3CC[C@]12C)C(C)C` showed an IC50 (MCF7) of 3.01 µM, an IC50 (HepG2) of 3.56 µM and an IC50 (HCT-116) of 3.15 µM.

In the case of `CC[C@H](CC[C@@H](C)[C@H]1CC[C@H]2[C@@H]3CC(=O)N(CCO)[C@H]4C[C@@H](OC(C)=O)CC[C@]4(C)[C@H]3CC[C@]12C)C(C)C`, the Activity (MCF7) is reported as “Dose-dependent effect”, the IC50 (MCF7) is reported as 3.02 µM and the Activity (HepG2) is reported as “Dose-dependent effect”. For the same molecule, the IC50 (HepG2) was 4.52 µM, the Activity (HCT-116) was “Dose-dependent effect” and the IC50 (HCT-116) was 4.24 µM.

`CC[C@H](CC[C@@H](C)[C@H]1CC[C@H]2[C@@H]3CC(=O)[C@H]4C[C@@H](OC(C)=O)CC[C@]4(C)[C@H]3CC[C@]12C)C(C)C` showed an IC50 (MCF7) of 3.54 µM, an IC50 (HepG2) of 4.87 µM and an IC50 (HCT-116) of 5.02 µM.

Molecule `CC[C@H](CC[C@@H](C)[C@H]1CC[C@H]2[C@@H]3CC(=O)[C@H]4CCCC[C@]4(C)[C@H]3CC[C@]12C)C(C)C` has an IC50 (MCF7) of 3.34 µM, an IC50 (HepG2) of 5.22 µM and an IC50 (HCT-116) of 4.51 µM.

`CC[C@H](CC[C@@H](C)[C@H]1CC[C@H]2[C@@H]3CC(=O)N(CCO)[C@H]4CCCC[C@]4(C)[C@H]3CC[C@]12C)C(C)C` was tested, and the Activity (MCF7) was “Dose-dependent effect”, the IC50 (MCF7) was 2.98 µM and the Activity (HepG2) was “Dose-dependent effect”. For the same molecule, the IC50 (HepG2) was 4.68 µM, the Activity (HCT-116) was “Dose-dependent effect” and the IC50 (HCT-116) was 3.96 µM.

With `CC[C@H](CC[C@@H](C)[C@H]1CC[C@H]2[C@@H]3CC(=O)N(CCO)[C@H]4C[C@@H](Cl)CC[C@]4(C)[C@H]3CC[C@]12C)C(C)C` the Activity (MCF7) was “Dose-dependent effect”, the IC50 (MCF7) was 2.55 µM and the Activity (HepG2) was “Dose-dependent effect”. For the same molecule, the IC50 (HepG2) was 3.02 µM, the Activity (HCT-116) was “Dose-dependent effect” and the IC50 (HCT-116) was 2.72 µM.

With `COc1cccc2c1C(=O)c1c(O)c3c(c(O)c1C2=O)C[C@@](O)(C(=O)CO)C[C@@H]3O[C@H]1C[C@H](N)[C@H](O)[C@H](C)O1` [DOXORUBICIN] the IC50 (MCF7) was 2.44 µM, the IC50 (HepG2) was 2.68 µM and the IC50 (HCT-116) was 2.56 µM.
